This is an account of results in paper PMC7930720, “Functional Expression of the Human Glucose Transporters GLUT2 and GLUT3 in Yeast Offers Novel Screening Systems for GLUT-Targeting Drugs” (Frontiers in Molecular Biosciences, 2021).

Format in all cases: cell-based
In test [1] the target is T1, GLUT3 (Homo sapiens, UniProt P11169, S66Y).
T1 construct: gene SLC2A3; GLUT3S66Y
T1 sequence (P11169 1-496 S66Y): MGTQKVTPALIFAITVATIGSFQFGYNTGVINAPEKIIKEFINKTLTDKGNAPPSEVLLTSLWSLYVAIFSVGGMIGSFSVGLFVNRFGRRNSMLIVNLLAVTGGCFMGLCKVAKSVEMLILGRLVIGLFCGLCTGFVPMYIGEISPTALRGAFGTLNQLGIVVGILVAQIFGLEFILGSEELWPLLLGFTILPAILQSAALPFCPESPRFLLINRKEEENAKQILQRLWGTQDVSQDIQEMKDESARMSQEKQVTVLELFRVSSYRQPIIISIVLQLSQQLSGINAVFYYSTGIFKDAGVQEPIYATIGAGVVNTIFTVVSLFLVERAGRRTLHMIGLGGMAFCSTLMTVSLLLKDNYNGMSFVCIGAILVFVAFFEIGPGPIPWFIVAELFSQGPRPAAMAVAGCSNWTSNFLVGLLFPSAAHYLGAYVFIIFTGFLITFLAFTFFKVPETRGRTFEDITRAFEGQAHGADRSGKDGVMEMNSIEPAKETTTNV
Put plainly: inhibition of […]-glucose ([…]) uptake in hxt0 EBY.S7 yeast expressing the transporter; growth assay.

Test [2] addresses T2, GLUT2 (Homo sapiens, UniProt P11168, A89S/DEL55-88/Q455R).
T2 construct: gene SLC2A2
T2 sequence (P11168 with tags, fused parts or gaps DEL55-88/A89S/Q455R): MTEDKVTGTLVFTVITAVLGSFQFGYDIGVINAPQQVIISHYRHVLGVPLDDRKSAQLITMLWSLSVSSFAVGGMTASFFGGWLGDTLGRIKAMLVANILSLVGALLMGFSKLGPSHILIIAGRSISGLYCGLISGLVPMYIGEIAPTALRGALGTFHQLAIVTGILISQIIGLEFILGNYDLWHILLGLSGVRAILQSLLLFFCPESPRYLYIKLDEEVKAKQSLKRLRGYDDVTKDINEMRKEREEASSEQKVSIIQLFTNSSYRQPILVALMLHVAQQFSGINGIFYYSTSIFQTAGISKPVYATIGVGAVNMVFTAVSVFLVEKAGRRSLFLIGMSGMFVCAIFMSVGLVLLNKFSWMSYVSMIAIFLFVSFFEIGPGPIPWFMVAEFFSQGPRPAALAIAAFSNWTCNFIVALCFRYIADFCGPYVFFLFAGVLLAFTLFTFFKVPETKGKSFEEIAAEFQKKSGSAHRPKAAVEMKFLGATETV
The test is described as above.

Test [3] concerns the target T2, GLUT2. The experiment in a line: inhibition of […]-glucose ([…]) uptake in hxt0 EBY.S7 yeast expressing the transporter.
In test [4] the target is T1, GLUT3. The description is as above.

Regarding `O=C(CCc1ccc(O)cc1)c1c(O)cc(O)cc1O` [phloretin], the IC50 in test [1] is 22.4 ± 1.8 µM; in test [2] it was 1.07 ± 0.11 µM.
Turning to `O=c1c(O)c(-c2ccc(O)c(O)c2)oc2cc(O)cc(O)c12` [quercetin], the IC50 turned out to be 3.22 ± 0.45 µM in test [3] and 11.6 ± 0.6 µM in test [4].
